Data reported in PMC3540847 (Journal of Lipid Research, 2012).
Where a name gives a salt, the structure may show the parent alone.

How the values were obtained:
skAsbt = molecular target: T1, skAsbt (Leucoraja erinaceus, UniProt I4CJQ7); assay: competition of 3H-TCA uptake, transfected COS-7 cells; type: cell-based; details: 10 μM 3H-TCA, Na+ medium, 10 min
T1 sequence (I4CJQ7 1-393): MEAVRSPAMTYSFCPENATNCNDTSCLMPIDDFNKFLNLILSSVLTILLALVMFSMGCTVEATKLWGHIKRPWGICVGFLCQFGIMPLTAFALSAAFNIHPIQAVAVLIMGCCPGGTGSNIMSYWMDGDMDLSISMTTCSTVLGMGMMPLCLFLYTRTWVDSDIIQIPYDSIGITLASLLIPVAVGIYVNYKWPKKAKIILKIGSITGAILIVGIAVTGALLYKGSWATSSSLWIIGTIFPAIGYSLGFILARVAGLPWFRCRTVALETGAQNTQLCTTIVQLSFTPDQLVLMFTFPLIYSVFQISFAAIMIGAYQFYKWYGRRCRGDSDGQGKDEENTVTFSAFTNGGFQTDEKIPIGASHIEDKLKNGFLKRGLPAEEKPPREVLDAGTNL

hASBT = molecular target: T2, hASBT (Homo sapiens, UniProt Q12908); assay: as above; type: cell-based; details: 10 μM 3H-TCA, Na+ medium, 10 min
T2 sequence (Q12908 1-348): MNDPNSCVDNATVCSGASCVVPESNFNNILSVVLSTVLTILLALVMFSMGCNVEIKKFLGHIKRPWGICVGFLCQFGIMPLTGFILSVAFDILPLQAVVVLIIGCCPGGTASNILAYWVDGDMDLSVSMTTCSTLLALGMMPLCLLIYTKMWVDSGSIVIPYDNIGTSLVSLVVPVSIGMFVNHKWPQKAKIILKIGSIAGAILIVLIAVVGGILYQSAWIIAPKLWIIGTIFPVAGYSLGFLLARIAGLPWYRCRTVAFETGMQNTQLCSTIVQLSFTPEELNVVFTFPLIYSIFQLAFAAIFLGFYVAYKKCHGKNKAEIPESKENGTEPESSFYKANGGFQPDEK

Row | Structure (SMILES) | inhibition of uptake at 100 μM (skAsbt) | inhibition of uptake at 100 μM (hASBT)
1 | C[C@H](CCCC(CO)COS(=O)(=O)O)[C@H]1CC[C@H]2[C@@H]3[C@H](O)C[C@H]4C[C@H](O)CC[C@]4(C)[C@H]3C[C@H](O)[C@]12C (stereo partly drawn) [5α-cyprinol sulfate] | significantly reduced ^3H-TCA transport activity in both skAsbt and hASBT | significantly reduced ^3H-TCA transport activity in both skAsbt and hASBT
2 | C[C@H](CCC(=O)NCC(=O)O)[C@H]1CC[C@H]2[C@@H]3[C@H](O)C[C@@H]4C[C@H](O)CC[C@]4(C)[C@H]3CC[C@]12C [GCDCA] | significantly reduced ^3H-TCA transport activity in both skAsbt and hASBT | significantly reduced ^3H-TCA transport activity in both skAsbt and hASBT
3 | C[C@H](CCC(=O)NCCS(=O)(=O)O)[C@H]1CC[C@H]2[C@@H]3CC[C@@H]4C[C@H](O)CC[C@]4(C)[C@H]3CC[C@]12C [taurolithocholic acid] | significantly reduced ^3H-TCA transport activity in both skAsbt and hASBT | significantly reduced ^3H-TCA transport activity in both skAsbt and hASBT
4 | C[C@H](CCC(=O)NCCS(=O)(=O)O)[C@H]1CC[C@H]2[C@@H]3CC[C@@H]4C[C@H](OS(=O)(=O)O)CC[C@]4(C)[C@H]3CC[C@]12C [taurolithocholic acid-3-sulfate] | significantly reduced ^3H-TCA transport activity in both skAsbt and hASBT | –
5 | C[C@H](CCC(=O)NCCS(=O)(=O)O)[C@H]1CC[C@H]2[C@@H]3[C@@H](O)C[C@@H]4C[C@H](O)CC[C@]4(C)[C@H]3CC[C@]12C [TUDCA] | – | TUDCA effectively reduced ^3H-TCA transport activity in hASBT but not in skAsbt
6 | C[C@H](CCCOS(=O)(=O)O)[C@H]1CC[C@H]2[C@@H]3[C@H](O)C[C@H]4C[C@H](O)CC[C@]4(C)[C@H]3C[C@H](O)[C@]12C [5α-PZS] | significantly reduced ^3H-TCA transport activity in both skAsbt and hASBT | significantly reduced ^3H-TCA transport activity in both skAsbt and hASBT
7 | O=C1OC(c2ccc(O)c(S(=O)(=O)O)c2)(c2ccc(O)c(S(=O)(=O)O)c2)c2c(Br)c(Br)c(Br)c(Br)c21 [bromosulfophtalein] | bromosulfophtalein significantly inhibited both transporters | bromosulfophtalein significantly inhibited both transporters
8 | C[C@H](CCC(=O)NCCS(=O)(=O)O)[C@H]1CC[C@H]2[C@@H]3[C@H](O)C[C@@H]4C[C@H](O)CC[C@]4(C)[C@H]3CC[C@]12C [TCDCA] | significantly reduced ^3H-TCA transport activity in both skAsbt and hASBT | significantly reduced ^3H-TCA transport activity in both skAsbt and hASBT
